Data from ChEMBL document CHEMBL1153552, “Comparative in vitro pharmacodynamics of caspofungin, micafungin, and anidulafungin against germinated and nongerminated Aspergillus conidia” (2008).
The source made the active and inactive calls. No cut-off for these calls is given here.

Key:
Aspergillus fumigatus [1] = experiment: Decrease in germinated Aspergillus fumigatus metabolism assessed as metabolic activity at 64 ug/mL after 48 hrs by XTT assay; assay type: functional; parameters: scale not given: the % may be the effect or the level left
Aspergillus terreus [2] = experiment: Induction of maximal metabolic inhibition in nongerminated Aspergillus terreus assessed as minimal metabolic activity Ymin after 2 hrs by XTT assay; assay type: functional; parameters: scale not given: the % may be the effect or the level left
Aspergillus fumigatus [3] = experiment: Antifungal activity against nongerminated Aspergillus fumigatus assessed as lowest drug concentration that produced short, stubby and highly branched hyphae after 48 hrs by microscopic analysis; assay type: functional; conditions: read-out: MEC
Aspergillus terreus [4] = experiment: Effect on Aspergillus terreus metabolic activity assessed number of twofold drug dilutions required for germinated fungal metabolic activity to nongerminated fungal metabolic activity; assay type: functional
Aspergillus fumigatus [5] = experiment: Effect on germinated Aspergillus fumigatus metabolic activity assessed as drug concentration at which fungal metabolic activity occurs after 2 hrs by XTT assay; assay type: functional
Aspergillus terreus [6] = experiment: Decrease in nongerminated Aspergillus terreus metabolism assessed as metabolic activity at 128 ug/mL after 48 hrs by XTT assay; assay type: functional; parameters: scale not given: the % may be the effect or the level left
Aspergillus flavus [7] = experiment: Effect on nongerminated Aspergillus flavus metabolic activity assessed as drug concentration at which fungal metabolic activity occurs after 2 hrs by XTT assay; assay type: functional
Aspergillus terreus [8] = experiment: Effect on nongerminated Aspergillus terreus metabolic activity assessed as drug concentration at which fungal metabolic activity occurs after 2 hrs by XTT assay; assay type: functional
Aspergillus terreus [9] = experiment: Antifungal activity against germinated Aspergillus terreus assessed as absence of visual fungal growth at 128 ug/mL; assay type: functional, organism-based
Aspergillus terreus [10] = experiment: Antifungal activity against germinated Aspergillus terreus assessed as lowest drug concentration that produced short, stubby and highly branched hyphae after 48 hrs by microscopic analysis; assay type: functional; conditions: read-out: MEC
Aspergillus flavus [11] = experiment: Effect on germinated Aspergillus flavus metabolic activity assessed as drug concentration at which fungal metabolic activity occurs after 2 hrs by XTT assay; assay type: functional
Aspergillus fumigatus [12] = experiment: Effect on nongerminated Aspergillus fumigatus metabolic activity assessed as drug concentration at which fungal metabolic activity occurs after 2 hrs by XTT assay; assay type: functional
Aspergillus fumigatus [13] = experiment: Antifungal activity against germinated Aspergillus fumigatus assessed as lowest drug concentration that produced short, stubby and highly branched hyphae after 48 hrs by microscopic analysis; assay type: functional; conditions: read-out: MEC
Aspergillus flavus [14] = experiment: Effect on Aspergillus flavus metabolic activity assessed number of twofold drug dilutions required for germinated fungal metabolic activity to nongerminated fungal metabolic activity; assay type: functional
Aspergillus terreus [15] = experiment: Ratio of log2 of MEC for germinated Aspergillus terreus to log2 of MEC for nongerminated Aspergillus terreus; assay type: functional
Aspergillus fumigatus [16] = experiment: Induction of maximal metabolic inhibition in germinated Aspergillus fumigatus assessed as minimal metabolic activity Ymin after 2 hrs by XTT assay; assay type: functional; parameters: scale not given: the % may be the effect or the level left
Aspergillus fumigatus [17] = experiment: Ratio of log2 of MEC for germinated Aspergillus fumigatus to log2 of MEC for nongerminated Aspergillus fumigatus; assay type: functional
Aspergillus terreus [18] = experiment: Decrease in nongerminated Aspergillus terreus metabolism assessed as metabolic activity at 64 ug/mL after 48 hrs by XTT assay; assay type: functional; parameters: scale not given: the % may be the effect or the level left
Aspergillus terreus [19] = experiment: Decrease in germinated Aspergillus terreus metabolism assessed as metabolic activity at 128 ug/mL after 48 hrs by XTT assay; assay type: functional; parameters: scale not given: the % may be the effect or the level left
Aspergillus flavus [20] = experiment: Decrease in nongerminated Aspergillus flavus metabolism assessed as metabolic activity at 64 ug/mL after 48 hrs by XTT assay; assay type: functional; parameters: scale not given: the % may be the effect or the level left
Aspergillus terreus [21] = experiment: Decrease in germinated Aspergillus terreus metabolism assessed as metabolic activity at 64 ug/mL after 48 hrs by XTT assay; assay type: functional; parameters: scale not given: the % may be the effect or the level left
Aspergillus fumigatus [22] = experiment: Decrease in germinated Aspergillus fumigatus metabolism assessed as metabolic activity at 128 ug/mL after 48 hrs by XTT assay; assay type: functional; parameters: scale not given: the % may be the effect or the level left
Aspergillus fumigatus [23] = experiment: Antifungal activity against germinated Aspergillus fumigatus assessed as absence of visual fungal growth at 128 ug/mL; assay type: functional, organism-based
Aspergillus fumigatus [24] = experiment: Decrease in nongerminated Aspergillus fumigatus metabolism assessed as metabolic activity at 128 ug/mL after 48 hrs by XTT assay; assay type: functional; parameters: scale not given: the % may be the effect or the level left
Aspergillus flavus [25] = experiment: Induction of maximal metabolic inhibition in germinated Aspergillus flavus assessed as minimal metabolic activity Ymin after 2 hrs by XTT assay; assay type: functional; parameters: scale not given: the % may be the effect or the level left
Aspergillus flavus [26] = experiment: Antifungal activity against germinated Aspergillus flavus assessed as absence of visual fungal growth at 128 ug/mL; assay type: functional, organism-based
Aspergillus fumigatus [27] = experiment: Decrease in nongerminated Aspergillus fumigatus metabolism assessed as metabolic activity at 64 ug/mL after 48 hrs by XTT assay; assay type: functional; parameters: scale not given: the % may be the effect or the level left
Aspergillus flavus [28] = experiment: Induction of maximal metabolic inhibition in nongerminated Aspergillus flavus assessed as minimal metabolic activity Ymin after 2 hrs by XTT assay; assay type: functional; parameters: scale not given: the % may be the effect or the level left
Aspergillus fumigatus [29] = experiment: Antifungal activity against nongerminated Aspergillus fumigatus assessed as absence of visual fungal growth at 128 ug/mL; assay type: functional, organism-based
Aspergillus terreus [30] = experiment: Antifungal activity against nongerminated Aspergillus terreus assessed as lowest drug concentration that produced short, stubby and highly branched hyphae after 48 hrs by microscopic analysis; assay type: functional; conditions: read-out: MEC
Aspergillus fumigatus [31] = experiment: Induction of maximal metabolic inhibition in nongerminated Aspergillus fumigatus assessed as minimal metabolic activity Ymin after 2 hrs by XTT assay; assay type: functional; parameters: scale not given: the % may be the effect or the level left
Aspergillus flavus [32] = experiment: Decrease in germinated Aspergillus flavus metabolism assessed as metabolic activity at 128 ug/mL after 48 hrs by XTT assay; assay type: functional; parameters: scale not given: the % may be the effect or the level left
Aspergillus flavus [33] = experiment: Ratio of log2 of MEC for germinated Aspergillus flavus to log2 of MEC for nongerminated Aspergillus flavus; assay type: functional
Aspergillus terreus [34] = experiment: Effect on germinated Aspergillus terreus metabolic activity assessed as drug concentration at which fungal metabolic activity occurs after 2 hrs by XTT assay; assay type: functional
Aspergillus flavus [35] = experiment: Decrease in nongerminated Aspergillus flavus metabolism assessed as metabolic activity at 128 ug/mL after 48 hrs by XTT assay; assay type: functional; parameters: scale not given: the % may be the effect or the level left
Aspergillus flavus [36] = experiment: Antifungal activity against germinated Aspergillus flavus assessed as lowest drug concentration that produced short, stubby and highly branched hyphae after 48 hrs by microscopic analysis; assay type: functional; conditions: read-out: MEC
Aspergillus fumigatus [37] = experiment: Effect on Aspergillus fumigatus metabolic activity assessed number of twofold drug dilutions required for germinated fungal metabolic activity to nongerminated fungal metabolic activity; assay type: functional
Aspergillus terreus [38] = experiment: Induction of maximal metabolic inhibition in germinated Aspergillus terreus assessed as minimal metabolic activity Ymin after 2 hrs by XTT assay; assay type: functional; parameters: scale not given: the % may be the effect or the level left
Aspergillus flavus [39] = experiment: Antifungal activity against nongerminated Aspergillus flavus assessed as lowest drug concentration that produced short, stubby and highly branched hyphae after 48 hrs by microscopic analysis; assay type: functional; conditions: read-out: MEC
Aspergillus terreus [40] = experiment: Antifungal activity against nongerminated Aspergillus terreus assessed as absence of visual fungal growth at 128 ug/mL; assay type: functional, organism-based
Aspergillus flavus [41] = experiment: Decrease in germinated Aspergillus flavus metabolism assessed as metabolic activity at 64 ug/mL after 48 hrs by XTT assay; assay type: functional; parameters: scale not given: the % may be the effect or the level left
Aspergillus flavus [42] = experiment: Antifungal activity against nongerminated Aspergillus flavus assessed as absence of visual fungal growth at 128 ug/mL; assay type: functional, organism-based

CC[C@H](C)C[C@H](C)CCCCCCCCC(=O)N[C@H]1C[C@@H](O)[C@@H](NCCN)NC(=O)[C@@H]2[C@@H](O)CCN2C(=O)[C@H]([C@H](O)CCN)NC(=O)[C@H]([C@H](O)[C@@H](O)c2ccc(O)cc2)NC(=O)[C@@H]2C[C@@H](O)CN2C(=O)[C@H]([C@@H](C)O)NC1=O [CASPOFUNGIN]
Activity (Aspergillus fumigatus [1]): <5%
Activity (Aspergillus terreus [2]): 34%
minimal effective concentration (Aspergillus fumigatus [3]): 1 µg/mL
Ratio (Aspergillus terreus [4]): 1.12
EC5 (Aspergillus fumigatus [5]): 1.2 µg/mL
Activity (Aspergillus terreus [6]): <5%
EC5 (Aspergillus flavus [7]): 0.64 µg/mL
EC5 (Aspergillus terreus [8]): 0.65 µg/mL
Activity (Aspergillus terreus [9]): Active
minimal effective concentration (Aspergillus terreus [10]): 1 µg/mL
EC5 (Aspergillus flavus [11]): 0.87 µg/mL
EC5 (Aspergillus fumigatus [12]): 0.67 µg/mL
minimal effective concentration (Aspergillus fumigatus [13]): 1 µg/mL
Ratio (Aspergillus flavus [14]): 0.43
Ratio (Aspergillus terreus [15]): 1
Activity (Aspergillus fumigatus [16]): 26%
Ratio (Aspergillus fumigatus [17]): 0
Activity (Aspergillus terreus [18]): <5%
Activity (Aspergillus terreus [19]): <5%
Activity (Aspergillus flavus [20]): <5%
Activity (Aspergillus terreus [21]): <5%
Activity (Aspergillus fumigatus [22]): <5%
Activity (Aspergillus fumigatus [23]): Active
Activity (Aspergillus fumigatus [24]): <5%
Activity (Aspergillus flavus [25]): 21%
Activity (Aspergillus flavus [26]): Active
Activity (Aspergillus fumigatus [27]): <5%
Activity (Aspergillus flavus [28]): 17%
Activity (Aspergillus fumigatus [29]): Active
minimal effective concentration (Aspergillus terreus [30]): 0.5 µg/mL
Activity (Aspergillus fumigatus [31]): 26%
Activity (Aspergillus flavus [32]): <5%
Ratio (Aspergillus flavus [33]): 0
EC5 (Aspergillus terreus [34]): 1.06 µg/mL
Activity (Aspergillus flavus [35]): <5%
minimal effective concentration (Aspergillus flavus [36]): 1 µg/mL
Ratio (Aspergillus fumigatus [37]): 0.96
Activity (Aspergillus terreus [38]): 35%
minimal effective concentration (Aspergillus flavus [39]): 1 µg/mL
Activity (Aspergillus terreus [40]): Active
Activity (Aspergillus flavus [41]): <5%
Activity (Aspergillus flavus [42]): Active
